Assay results as given in ChEMBL document CHEMBL5465560, “Selectivity Literature for EUbOPEN Chemogenomic Library” (2024).
Values belong to the molecule of their own block, whether it stands above or below them.

Assays:
[1] = test system: Tyrosine-protein kinase ABL1 (Homo sapiens), P00519 [T315I]; test: (§1) Selectivity interaction (Millipore kinase profiler) EUB0000124b ABL1; conditions: at 10 µM
[2] = molecular target: Tyrosine-protein kinase ABL1 (Homo sapiens, UniProt P00519); test: as §1; conditions: at 10 µM
[3] = molecular target: T1, Serine/threonine-protein kinase D2 (Homo sapiens) (UniProt Q9BZL6); test: Selectivity interaction (Ambit KINOMEscan and KiNATiv profiling in Jurkat cells) EUB0000090b PRKD2; format: cell-based; conditions: at 1 µM
T1 sequence (whole entry): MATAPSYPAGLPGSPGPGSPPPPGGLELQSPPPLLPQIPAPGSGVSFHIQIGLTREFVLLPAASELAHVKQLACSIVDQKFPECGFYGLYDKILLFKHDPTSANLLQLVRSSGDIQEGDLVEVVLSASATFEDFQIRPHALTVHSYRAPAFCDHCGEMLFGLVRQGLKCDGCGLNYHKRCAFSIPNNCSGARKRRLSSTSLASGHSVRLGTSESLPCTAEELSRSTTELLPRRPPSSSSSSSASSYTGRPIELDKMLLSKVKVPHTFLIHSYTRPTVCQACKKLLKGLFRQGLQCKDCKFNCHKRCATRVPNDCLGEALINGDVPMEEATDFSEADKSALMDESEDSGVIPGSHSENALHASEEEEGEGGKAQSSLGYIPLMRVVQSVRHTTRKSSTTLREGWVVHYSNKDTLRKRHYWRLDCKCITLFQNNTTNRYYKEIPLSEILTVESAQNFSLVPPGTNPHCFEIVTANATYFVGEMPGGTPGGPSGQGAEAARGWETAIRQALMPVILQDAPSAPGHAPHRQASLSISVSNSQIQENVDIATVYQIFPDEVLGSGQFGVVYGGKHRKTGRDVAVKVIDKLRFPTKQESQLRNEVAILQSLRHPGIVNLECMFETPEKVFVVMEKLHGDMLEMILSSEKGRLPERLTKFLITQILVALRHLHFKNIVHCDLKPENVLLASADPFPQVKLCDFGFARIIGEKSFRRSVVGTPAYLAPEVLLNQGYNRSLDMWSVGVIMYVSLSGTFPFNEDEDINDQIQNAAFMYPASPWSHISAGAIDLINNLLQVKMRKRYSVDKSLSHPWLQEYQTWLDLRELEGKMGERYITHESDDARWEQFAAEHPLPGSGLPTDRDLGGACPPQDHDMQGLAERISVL

[4] = molecular target: AP2-associated protein kinase 1 (Homo sapiens, UniProt Q2M2I8); test: Selectivity interaction (LanthaScreen Eu Kinase Binding Assay) EUB0001632a AAK1; conditions: at 10 µM
[5] = molecular target: Fibroblast growth factor receptor 2 (Homo sapiens) (UniProt P21802); test: Selectivity interaction (Kinase panel (Z-LYTE Assay)) EUB0001632a FGFR2; conditions: at 10 µM
[6] = molecular target: Phosphatidylinositol 4,5-bisphosphate 3-kinase catalytic subunit beta isoform (Homo sapiens) (UniProt P42338); test: Selectivity interaction (KinomeScan (DiscoverX)) EUB0001079a PIK3CB; conditions: at 1 µM
[7] = molecular target: Mitogen-activated protein kinase 14 (Homo sapiens, UniProt Q16539); test: Selectivity interaction (ProQinase) EUB0000171b MAPK14
[8] = molecular target: Leukocyte tyrosine kinase receptor (Homo sapiens, UniProt P29376); test: Selectivity interaction (KinomeScan (DiscoverX)) EUB0000045b LTK
[9] = molecular target: T2, Serine/threonine-protein kinase tousled-like 1 (Homo sapiens) (UniProt Q9UKI8); test: Selectivity interaction (KinomeScan (DiscoverX)) EUB0000655a TLK1; conditions: at 10 µM
T2 sequence (whole entry): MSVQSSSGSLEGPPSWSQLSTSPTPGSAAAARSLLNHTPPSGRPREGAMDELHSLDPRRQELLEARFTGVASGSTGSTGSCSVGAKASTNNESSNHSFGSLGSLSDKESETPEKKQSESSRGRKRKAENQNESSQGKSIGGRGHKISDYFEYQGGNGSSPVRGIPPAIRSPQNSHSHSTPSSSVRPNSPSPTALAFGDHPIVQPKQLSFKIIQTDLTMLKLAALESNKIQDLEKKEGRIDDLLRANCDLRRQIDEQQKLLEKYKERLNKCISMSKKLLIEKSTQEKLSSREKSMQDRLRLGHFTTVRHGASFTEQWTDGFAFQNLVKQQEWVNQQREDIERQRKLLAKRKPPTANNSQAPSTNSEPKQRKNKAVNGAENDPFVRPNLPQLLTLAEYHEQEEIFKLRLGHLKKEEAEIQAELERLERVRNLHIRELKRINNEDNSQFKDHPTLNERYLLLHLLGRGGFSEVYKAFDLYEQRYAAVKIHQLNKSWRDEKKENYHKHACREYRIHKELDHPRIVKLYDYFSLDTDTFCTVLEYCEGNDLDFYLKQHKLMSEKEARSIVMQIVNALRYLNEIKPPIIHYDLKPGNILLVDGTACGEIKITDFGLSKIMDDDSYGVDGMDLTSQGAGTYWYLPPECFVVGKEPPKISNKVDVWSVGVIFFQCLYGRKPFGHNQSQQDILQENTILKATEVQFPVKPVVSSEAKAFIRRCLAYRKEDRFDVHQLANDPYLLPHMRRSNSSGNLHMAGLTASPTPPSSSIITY

[10] = molecular target: Serine/threonine-protein kinase WNK1 (Homo sapiens) (UniProt Q9H4A3); test: Selectivity interaction (ActivX KiNativ screen (ex vivo kinase selectivity in human PBMCs)) EUB0001619a WNK1; format: cell-based; conditions: PBMC, at 1 µM
[11] = molecular target: T3, Calcium/calmodulin-dependent protein kinase type IV (Homo sapiens) (UniProt Q16566); test: Selectivity interaction (SelectScreen profiling (Invitrogen)) EUB0000607a CAMK4; conditions: at 2 µM
T3 sequence (whole entry): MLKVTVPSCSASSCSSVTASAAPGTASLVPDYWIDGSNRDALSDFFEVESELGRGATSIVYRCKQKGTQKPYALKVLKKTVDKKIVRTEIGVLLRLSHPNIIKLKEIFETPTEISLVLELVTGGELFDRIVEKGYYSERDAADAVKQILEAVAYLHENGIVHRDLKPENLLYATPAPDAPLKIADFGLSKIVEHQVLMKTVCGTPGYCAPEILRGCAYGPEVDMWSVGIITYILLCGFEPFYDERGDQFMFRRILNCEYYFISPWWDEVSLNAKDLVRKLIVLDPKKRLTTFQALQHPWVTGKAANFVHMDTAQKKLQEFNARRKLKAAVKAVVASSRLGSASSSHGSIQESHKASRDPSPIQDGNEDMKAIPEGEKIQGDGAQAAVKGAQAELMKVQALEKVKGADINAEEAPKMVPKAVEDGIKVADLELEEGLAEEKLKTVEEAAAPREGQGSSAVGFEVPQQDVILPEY

Leukocyte tyrosine kinase receptor, sequence (P29376 whole entry): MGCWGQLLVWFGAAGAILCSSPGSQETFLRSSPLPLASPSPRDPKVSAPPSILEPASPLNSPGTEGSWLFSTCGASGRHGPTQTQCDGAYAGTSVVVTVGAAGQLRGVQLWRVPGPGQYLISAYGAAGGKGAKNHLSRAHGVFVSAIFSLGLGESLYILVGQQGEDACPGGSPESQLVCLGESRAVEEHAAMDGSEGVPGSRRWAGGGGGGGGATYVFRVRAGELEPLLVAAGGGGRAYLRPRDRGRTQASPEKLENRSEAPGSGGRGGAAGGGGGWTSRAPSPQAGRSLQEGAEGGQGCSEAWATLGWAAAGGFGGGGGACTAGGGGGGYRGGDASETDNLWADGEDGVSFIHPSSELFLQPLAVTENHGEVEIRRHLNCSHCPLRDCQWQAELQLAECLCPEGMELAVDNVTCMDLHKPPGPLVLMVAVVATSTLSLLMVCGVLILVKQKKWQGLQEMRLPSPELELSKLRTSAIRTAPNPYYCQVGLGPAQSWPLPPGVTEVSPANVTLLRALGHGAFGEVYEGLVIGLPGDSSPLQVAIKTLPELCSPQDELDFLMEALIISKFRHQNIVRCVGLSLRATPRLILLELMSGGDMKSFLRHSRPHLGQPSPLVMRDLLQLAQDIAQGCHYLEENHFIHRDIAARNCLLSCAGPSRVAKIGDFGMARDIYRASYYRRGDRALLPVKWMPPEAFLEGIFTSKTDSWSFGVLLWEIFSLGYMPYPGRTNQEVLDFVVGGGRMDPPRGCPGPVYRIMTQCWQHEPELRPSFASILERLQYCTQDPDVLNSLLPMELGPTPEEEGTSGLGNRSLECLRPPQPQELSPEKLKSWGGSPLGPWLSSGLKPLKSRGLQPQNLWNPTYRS
Mitogen-activated protein kinase 14, sequence (Q16539 whole entry): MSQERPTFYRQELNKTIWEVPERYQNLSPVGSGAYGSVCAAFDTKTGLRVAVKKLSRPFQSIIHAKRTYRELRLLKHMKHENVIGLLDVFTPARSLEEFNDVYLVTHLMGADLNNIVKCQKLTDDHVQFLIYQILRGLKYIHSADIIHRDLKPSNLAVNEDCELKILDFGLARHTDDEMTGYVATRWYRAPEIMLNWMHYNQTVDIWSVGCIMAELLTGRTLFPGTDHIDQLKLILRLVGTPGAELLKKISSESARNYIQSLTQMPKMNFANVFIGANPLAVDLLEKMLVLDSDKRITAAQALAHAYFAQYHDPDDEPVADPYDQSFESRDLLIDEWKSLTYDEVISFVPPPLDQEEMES
Fibroblast growth factor receptor 2 (Homo sapiens), sequence (P21802 22-821 limits assumed): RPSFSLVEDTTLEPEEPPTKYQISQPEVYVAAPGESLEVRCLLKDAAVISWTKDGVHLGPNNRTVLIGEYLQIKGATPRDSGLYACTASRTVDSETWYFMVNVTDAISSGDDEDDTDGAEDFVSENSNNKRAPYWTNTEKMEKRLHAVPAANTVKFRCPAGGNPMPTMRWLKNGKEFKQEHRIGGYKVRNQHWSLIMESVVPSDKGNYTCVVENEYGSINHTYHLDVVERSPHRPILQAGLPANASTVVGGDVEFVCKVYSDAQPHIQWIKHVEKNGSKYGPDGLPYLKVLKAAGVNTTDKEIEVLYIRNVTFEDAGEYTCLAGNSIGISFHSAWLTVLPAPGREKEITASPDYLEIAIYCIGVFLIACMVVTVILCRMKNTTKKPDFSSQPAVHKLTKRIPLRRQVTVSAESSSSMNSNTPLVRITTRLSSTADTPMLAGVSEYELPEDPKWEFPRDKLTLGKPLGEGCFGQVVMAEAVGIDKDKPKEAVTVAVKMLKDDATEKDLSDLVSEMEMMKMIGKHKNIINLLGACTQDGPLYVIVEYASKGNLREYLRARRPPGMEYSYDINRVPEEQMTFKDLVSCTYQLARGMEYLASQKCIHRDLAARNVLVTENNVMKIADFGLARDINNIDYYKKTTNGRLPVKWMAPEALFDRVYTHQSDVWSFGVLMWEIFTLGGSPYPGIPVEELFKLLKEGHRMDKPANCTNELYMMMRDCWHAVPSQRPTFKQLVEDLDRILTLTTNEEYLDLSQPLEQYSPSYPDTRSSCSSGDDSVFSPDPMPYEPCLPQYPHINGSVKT
Phosphatidylinositol 4,5-bisphosphate 3-kinase catalytic subunit beta isoform (Homo sapiens), sequence (P42338 whole entry, looked up, canonical isoform): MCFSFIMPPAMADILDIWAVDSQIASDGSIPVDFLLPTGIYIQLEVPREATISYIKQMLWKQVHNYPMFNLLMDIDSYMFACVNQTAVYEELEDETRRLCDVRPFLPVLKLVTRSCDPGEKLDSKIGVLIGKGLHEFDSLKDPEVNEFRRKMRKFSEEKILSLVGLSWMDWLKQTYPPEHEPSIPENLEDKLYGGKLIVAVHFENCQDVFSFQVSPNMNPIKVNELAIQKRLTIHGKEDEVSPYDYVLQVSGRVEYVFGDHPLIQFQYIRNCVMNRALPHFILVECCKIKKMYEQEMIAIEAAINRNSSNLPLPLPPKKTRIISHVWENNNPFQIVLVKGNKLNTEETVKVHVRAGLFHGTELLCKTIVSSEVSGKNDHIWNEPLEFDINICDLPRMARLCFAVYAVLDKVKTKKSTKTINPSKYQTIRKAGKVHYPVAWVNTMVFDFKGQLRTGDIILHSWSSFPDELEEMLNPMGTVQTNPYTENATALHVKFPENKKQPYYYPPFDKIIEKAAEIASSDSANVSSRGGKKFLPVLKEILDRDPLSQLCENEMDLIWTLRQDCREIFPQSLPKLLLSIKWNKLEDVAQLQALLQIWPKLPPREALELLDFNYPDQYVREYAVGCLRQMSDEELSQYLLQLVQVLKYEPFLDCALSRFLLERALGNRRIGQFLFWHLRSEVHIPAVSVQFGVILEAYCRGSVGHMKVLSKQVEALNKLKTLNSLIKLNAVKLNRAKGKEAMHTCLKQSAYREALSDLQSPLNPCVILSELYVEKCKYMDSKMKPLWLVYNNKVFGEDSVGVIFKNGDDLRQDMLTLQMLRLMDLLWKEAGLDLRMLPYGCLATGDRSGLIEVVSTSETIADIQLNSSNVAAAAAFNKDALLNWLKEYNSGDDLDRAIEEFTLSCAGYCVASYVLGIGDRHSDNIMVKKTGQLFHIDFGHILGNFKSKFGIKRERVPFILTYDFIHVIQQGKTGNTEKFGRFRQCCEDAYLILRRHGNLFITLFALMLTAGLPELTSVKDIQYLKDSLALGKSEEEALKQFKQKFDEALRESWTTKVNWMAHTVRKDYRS
AP2-associated protein kinase 1, sequence (Q2M2I8 whole entry, looked up): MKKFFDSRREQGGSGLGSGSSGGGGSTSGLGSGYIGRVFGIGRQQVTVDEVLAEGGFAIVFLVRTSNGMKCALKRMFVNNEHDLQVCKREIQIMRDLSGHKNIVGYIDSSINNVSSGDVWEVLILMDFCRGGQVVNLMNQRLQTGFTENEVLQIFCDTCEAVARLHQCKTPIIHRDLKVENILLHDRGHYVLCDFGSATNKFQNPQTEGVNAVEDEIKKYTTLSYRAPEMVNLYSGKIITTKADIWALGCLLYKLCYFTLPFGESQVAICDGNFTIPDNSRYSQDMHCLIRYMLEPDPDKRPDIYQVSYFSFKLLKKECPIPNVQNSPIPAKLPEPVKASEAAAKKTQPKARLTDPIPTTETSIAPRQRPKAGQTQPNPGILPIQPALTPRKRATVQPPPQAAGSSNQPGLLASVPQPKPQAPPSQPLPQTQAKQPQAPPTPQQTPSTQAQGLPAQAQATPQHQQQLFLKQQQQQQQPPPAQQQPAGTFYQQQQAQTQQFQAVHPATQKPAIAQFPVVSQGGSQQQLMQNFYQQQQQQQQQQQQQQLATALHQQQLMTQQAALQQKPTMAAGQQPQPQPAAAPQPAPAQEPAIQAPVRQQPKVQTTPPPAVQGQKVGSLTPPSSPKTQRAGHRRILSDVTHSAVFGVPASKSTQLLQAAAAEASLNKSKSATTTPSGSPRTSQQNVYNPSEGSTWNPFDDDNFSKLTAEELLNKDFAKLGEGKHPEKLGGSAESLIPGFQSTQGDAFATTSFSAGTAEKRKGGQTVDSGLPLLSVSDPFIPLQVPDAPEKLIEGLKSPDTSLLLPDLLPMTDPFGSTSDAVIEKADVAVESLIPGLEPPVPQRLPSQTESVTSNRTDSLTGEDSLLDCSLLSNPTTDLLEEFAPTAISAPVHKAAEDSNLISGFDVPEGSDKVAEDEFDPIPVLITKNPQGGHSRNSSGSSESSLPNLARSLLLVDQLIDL

- % of control [1]: 112%
- % of control [2]: 95%
Structure (SMILES): CC(=O)Nc1cccc(-n2c(=O)n(C3CC3)c(=O)c3c(Nc4ccc(I)cc4F)n(C)c(=O)c(C)c32)c1

Structure (SMILES): CN(C)C/C=C/C(=O)Nc1ccc(C(=O)N2CCCC(Nc3ncc(Cl)c(-c4c[nH]c5ccccc45)n3)C2)cc1 (stereo not drawn)
- % of control [3]: 55%

- % of inhibition [4]: 4.16%
- % of control [5]: 17.8%
Structure (SMILES): Cn1cc(-n2cnc3c(NCc4nc5cc(Cl)c(Cl)cc5[nH]4)nc(N4CCOCC4)nc32)cn1

Structure (SMILES): Nc1cnc(N2CCc3cc(S(=O)(=O)Nc4c(F)cc(Cl)cc4F)cc(N4CCCC4=O)c32)nc1 [TP-020n]
- % of control [6]: 87%

- % of control ([7]; at 1 µM): 90%
- % of control ([7]; at 5 µM): 67%
Structure (SMILES): C=CC(=O)Nc1cccc(C(=O)Nc2ccc(Nc3cc(-c4[nH]c(SC)nc4C)ccn3)cc2)c1

Structure (SMILES): C=CC(=O)Nc1cc(-n2c(=O)ccc3cnc4ccc(-c5ccc(NS(C)(=O)=O)cc5)cc4c32)ccc1C
- % of control ([8]; at 1 µM): 100%
- % of control ([8]; at 10 µM): 100%

Structure (SMILES): CN(C)CCOc1ccc(-c2nc(-c3ccncc3)c(-c3ccc4c(c3)CC/C4=N\O)[nH]2)cc1
- % of control [9]: 99%

Structure (SMILES): N#Cc1cccc(-c2c[nH]c3ncnc(N4CCOCC4)c23)c1
- % of inhibition [10]: -6%

Structure (SMILES): CNC(=O)Nc1ccc(-c2nc(N3CC4CCC(C3)O4)c3cnn(C4CCC5(CC4)OCCO5)c3n2)cc1
- % of inhibition [11]: -1%
